Measured values from patent US10301272B2, “Carboxamide or sulfonamide substituted thiazoles and related derivatives as modulators for the orphan nuclear receptor ROR[γ]” (Phenex Pharmaceuticals AG, priority 2012, dated 2019).

Columns and labels:
[1] = molecular target: RORγ ligand binding domain (LBD) (Homo sapiens (Human), UniProt P51449); experiment: TR-FRET Activity Assay (ligand sensing assay, LANCE); details: TR-FRET, interaction of RORγ-LBD with coactivator peptide
Text: The ligand-binding domain (LBD) of RORγ was expressed as fusion protein with GST in BL-21 (BL3) cells using the vector pDEST15. Cells were lysed by lysozyme-treatment and sonication, and the fusion proteins purified over glutathione sepharose (Pharmacia) according to the manufacturers instructions. For screening of compounds for their influence on the RORγ-peptide interaction, the LANCE technology (Perkin Elmer) was applied. This method relies on the binding dependent energy transfer from a donor to an acceptor fluorophor attached to the binding partner of interest. For ease of handling and reduction of background from compound fluorescence LANCE technology makes use of generic fluorophore labels and time resolved detection assays were done in a final volume of 25 μL in a 384 well plate, in a Tris-based buffer system (20 mM Tris-HCl pH 6.8; 60 mM KCl, 1 mM DTT; 5 mM MgCl2; 35 ng/μL BSA), containing 20-60 ng/well recombinantly expressed RORγ-LBD fused to GST, 200-600 nM N-terminally biotinylated peptide, 200 ng/well Streptavidin-xlAPC conjugate (Prozyme) and 6-10 ng/well Eu W1024-antiGST (Perkin Elmer). DMSO content of the samples was kept at 1%.
After generation of the Tris-based buffer system, the potentially RORγ modulating ligands were diluted. […] The LANCE signal was detected by a Perkin Elmer EnVision™ Multilabel Counter. […] Ligands that promote the complex formation induce a concentration-dependent increase in time-resolved fluorescent signal.
Y is the response. Y starts at Bottom and goes to Top with a sigmoidal shape.
This is identical to the “four parameter logistic equation”. The IC50 values are calculated using this equation.

[2] = molecular target: RORγ (Homo sapiens, UniProt P51449); experiment: RORγ Gal4 Reporter Gene Assay; assay type: cell-based
In short: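 Cells at 5×10^5/well were transfected with RORγ fragments fused to the GAL4 DNA-binding domain (CMV promoter), a 5×GAL4-site firefly luciferase reporter and CMV-Renilla luciferase for normalization. About 4 h later serum-free MEM and compound were added (vehicle ≤0.1%). Cultures at 37 °C, 5% CO2; at least triplicates.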

Chain of RORγ (P51449 whole entry, looked up, the tested form may be a part): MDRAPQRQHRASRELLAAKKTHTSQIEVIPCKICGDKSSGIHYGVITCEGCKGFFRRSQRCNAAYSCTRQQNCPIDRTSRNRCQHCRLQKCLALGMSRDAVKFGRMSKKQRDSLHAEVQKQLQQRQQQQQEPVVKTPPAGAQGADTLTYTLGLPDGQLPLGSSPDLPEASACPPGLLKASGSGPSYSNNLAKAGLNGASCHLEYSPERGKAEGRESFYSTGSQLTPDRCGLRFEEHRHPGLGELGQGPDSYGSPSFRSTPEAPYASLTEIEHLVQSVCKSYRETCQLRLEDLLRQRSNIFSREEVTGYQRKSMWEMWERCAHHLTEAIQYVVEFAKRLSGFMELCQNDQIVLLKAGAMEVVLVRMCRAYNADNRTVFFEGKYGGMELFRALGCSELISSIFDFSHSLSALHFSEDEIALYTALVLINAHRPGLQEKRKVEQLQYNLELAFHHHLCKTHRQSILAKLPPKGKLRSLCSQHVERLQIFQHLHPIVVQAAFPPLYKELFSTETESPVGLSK
Chain of RORγ ligand binding domain (LBD) (P51449 269-508): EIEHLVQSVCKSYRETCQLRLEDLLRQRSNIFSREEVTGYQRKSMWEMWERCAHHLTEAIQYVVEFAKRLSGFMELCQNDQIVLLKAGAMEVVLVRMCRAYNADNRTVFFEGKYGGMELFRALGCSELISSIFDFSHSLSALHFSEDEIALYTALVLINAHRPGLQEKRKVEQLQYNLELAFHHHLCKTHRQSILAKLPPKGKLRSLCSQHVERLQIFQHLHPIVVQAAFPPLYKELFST

Which results are given for `CC(C)(C)NS(=O)(=O)c1ccc(-c2sc(C(=O)NC3CCS(=O)(=O)CC3)nc2Cc2ccccc2)c2ccccc12` [Example 300, 4-Benzyl-5-(4-(N-(tert-butyl)sulfamoyl)naphthalen-1-yl)-N-(1,1-dioxidotetrahydro-2H-thiopyran-4-yl)thiazole-2-carboxamide]?
pIC50 (FRET) [1]: 7.1/8.2/8.4; pIC50 (FF) [2]: 7.1/8.2/8.4; pIC50 (REN) [2]: 7.1/8.2/8.4

For `CC(C)(C)NS(=O)(=O)c1ccc(-c2sc(C(=O)NC3CCS(=O)(=O)CC3)nc2-c2ccccc2)c2ccccc12` [Example 300/1], which “pIC50 (FRET)” value [1] is on record?
The value was 7.2/7.8/7.9.

And the “pIC50 (FF)” value [2]?
Its value is 7.2/7.8/7.9.

And the “pIC50 (REN)” value [2]?
The value was 7.2/7.8/7.9.
